# Experimental data taken from patent US20250368666A1, “INDAZOLE COMPOUNDS” (TYRA BIOSCIENCES, INC., priority 2022, published 2025).
# Counter-ions that a name gives are not always drawn. Like-named read-outs stand apart in the source and are kept apart here.
# Assays:
# [1] = target: T1, FGFR2 (Homo sapiens, UniProt P21802); experiment: Kinase binding assay (kinase-tagged T7 phage, affinity beads, qPCR), Kd
# T1 construct: made in house; host or cells: E. coli (BL21-derived), T7 phage
# Method in brief: (§1)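 Kd obtained by Levenberg–Marquardt Hill-equation fit (slope −1) to qPCR-measured kinase retained on ligand-coated streptavidin beads.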
# [2] = target: T2, FGFR3 (V555M) (Homo sapiens, UniProt P22607, V555M); experiment: as above
# T2 construct: made in house; host or cells: E. coli (BL21-derived), T7 phage
# Method in brief: as §1
# [3] = target: T3, FGFR4 (Homo sapiens, UniProt P22455); experiment: as above
# T3 construct: made in house; host or cells: E. coli (BL21-derived), T7 phage
# Method in brief: as §1
# [4] = target: T4, FGFR3 (Homo sapiens, UniProt P22607); experiment: as above
# T4 construct: made in house; host or cells: E. coli (BL21-derived), T7 phage
# Method in brief: as §1
# [5] = target: T5, FGFR1 (Homo sapiens, UniProt P11362); experiment: as above
# T5 construct: made in house; host or cells: E. coli (BL21-derived), T7 phage
# Method in brief: as §1
# [6] = tested on: KATO-III cell line (FGFR2 amplification); experiment: Cancer cell line cell viability assay (Cell Titer-Glo), 72 hr; type: cell-based; details: Homo sapiens
# Text: (§2) Experimental Purpose: To detect the change of intracellular ATP by Cell Titer-Glo® and to evaluate the inhibitory effect of the compounds on cancer cell lines by determining the in vitro IC50 value of the compounds.
# (§3) Cell Titer-Glo® 2.0 Luminescent cell viability assay reagent was purchased from Promega (Madison, WI). KG-1, KATO-III, and MDA-MB-453 cell lines were purchased from American Type Culture Collection (Manassas, VA). RT112/84 cell line was purchased from Millipore-Sigma (St. Louis, MO). HuH7 cells were purchased from Seikisui Xenotech (Kansas City, KS). RT112/84 and MDA-MB-453 cells were cultured in RPMI1640 media supplemented with 10% fetal bovine serum. KG-1 and KATO-III cell lines were cultured in IMDM media supplemented with 20% FBS. HuH7 cells were cultured in IMDM media supplemented with 10% FBS. Cultures were maintained at 37° C. in a humidified atmosphere of 5% CO2 and 95% air.
# (§4) Cell Viability Assay Procedure: Cells were plated in 96-well clear bottom/white plates (Corning #3903) at a range of densities depending on the optimal assay window (5,000-20,000 cells/well in […] of media), incubated overnight. The next day, test compound DMSO stock solutions were made at 10 mM and […] final concentration. Compounds were then added to cells in a 9-dose, 4-fold dilution series starting at 3 μM with an HP 300e Digital Dispenser (each dose was applied in triplicate). DMSO was backfilled to each well up to 301 nL total volume of test compound+DMSO, and a total of 301 nL DMSO was added to a control/no test compound well in triplicate. The cells in cell culture plates were incubated with the compounds at 37° C. and 5% CO2 for 72 hours-120 hours depending on the cell line. Then 50 μl of Cell Titer Glo 2.0 reagent was added to each well of the cell culture plates. The contents were covered from light and mixed on an orbital shaker at room temperature for minimum of 10 min. Luminescence was recorded by a Clariostar Plus Microplate Reader (BMG Labtech, Cary, NC). Cells were assessed as a percentage of DMSO only treated control cells. Curves were plotted and IC50 values were calculated using the GraphPad Prism 9 program based on a sigmoidal dose-response equation (log (inhibitor) vs. response—Variable slope, 4-parameter).
# [7] = tested on: RT112/84 cell line (FGFR3-fusion); experiment: as above; type: cell-based; details: Homo sapiens
# Text: as §2, §3, §4
# [8] = tested on: KG-1 cell line (FGFR 1-fusion); experiment: as above; type: cell-based; details: Homo sapiens
# Text: as §2, §3, §4
# [9] = V555M mutant, read-out: FGFR3 (V555M) (Kd nM)
# [10] = RT112/84, RT112/84 cell line (FGFR3-fusion)
# [11] = KG-1, KG-1 cell line (FGFR1-fusion)
# T3 sequence (P22455 22-802): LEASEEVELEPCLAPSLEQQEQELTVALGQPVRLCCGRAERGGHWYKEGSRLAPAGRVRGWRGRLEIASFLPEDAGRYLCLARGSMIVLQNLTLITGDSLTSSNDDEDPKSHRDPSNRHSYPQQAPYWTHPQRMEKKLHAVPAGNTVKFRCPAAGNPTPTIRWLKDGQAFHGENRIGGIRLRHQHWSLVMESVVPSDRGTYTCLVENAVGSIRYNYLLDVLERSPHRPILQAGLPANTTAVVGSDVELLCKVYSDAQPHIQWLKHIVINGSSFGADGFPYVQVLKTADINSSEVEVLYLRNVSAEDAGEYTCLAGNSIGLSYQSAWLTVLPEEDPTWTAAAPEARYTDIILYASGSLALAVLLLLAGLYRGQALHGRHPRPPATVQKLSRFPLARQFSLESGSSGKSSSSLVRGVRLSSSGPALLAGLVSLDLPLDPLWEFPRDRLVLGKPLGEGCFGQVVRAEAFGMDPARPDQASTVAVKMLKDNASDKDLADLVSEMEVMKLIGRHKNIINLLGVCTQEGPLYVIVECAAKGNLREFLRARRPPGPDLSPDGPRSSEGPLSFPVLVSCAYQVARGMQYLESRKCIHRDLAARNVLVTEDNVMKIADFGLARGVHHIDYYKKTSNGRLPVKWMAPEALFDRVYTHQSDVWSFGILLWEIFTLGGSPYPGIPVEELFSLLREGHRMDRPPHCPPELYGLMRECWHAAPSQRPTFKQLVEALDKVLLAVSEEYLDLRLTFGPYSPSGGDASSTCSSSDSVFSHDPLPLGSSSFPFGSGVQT
# T1 sequence (P21802 22-821): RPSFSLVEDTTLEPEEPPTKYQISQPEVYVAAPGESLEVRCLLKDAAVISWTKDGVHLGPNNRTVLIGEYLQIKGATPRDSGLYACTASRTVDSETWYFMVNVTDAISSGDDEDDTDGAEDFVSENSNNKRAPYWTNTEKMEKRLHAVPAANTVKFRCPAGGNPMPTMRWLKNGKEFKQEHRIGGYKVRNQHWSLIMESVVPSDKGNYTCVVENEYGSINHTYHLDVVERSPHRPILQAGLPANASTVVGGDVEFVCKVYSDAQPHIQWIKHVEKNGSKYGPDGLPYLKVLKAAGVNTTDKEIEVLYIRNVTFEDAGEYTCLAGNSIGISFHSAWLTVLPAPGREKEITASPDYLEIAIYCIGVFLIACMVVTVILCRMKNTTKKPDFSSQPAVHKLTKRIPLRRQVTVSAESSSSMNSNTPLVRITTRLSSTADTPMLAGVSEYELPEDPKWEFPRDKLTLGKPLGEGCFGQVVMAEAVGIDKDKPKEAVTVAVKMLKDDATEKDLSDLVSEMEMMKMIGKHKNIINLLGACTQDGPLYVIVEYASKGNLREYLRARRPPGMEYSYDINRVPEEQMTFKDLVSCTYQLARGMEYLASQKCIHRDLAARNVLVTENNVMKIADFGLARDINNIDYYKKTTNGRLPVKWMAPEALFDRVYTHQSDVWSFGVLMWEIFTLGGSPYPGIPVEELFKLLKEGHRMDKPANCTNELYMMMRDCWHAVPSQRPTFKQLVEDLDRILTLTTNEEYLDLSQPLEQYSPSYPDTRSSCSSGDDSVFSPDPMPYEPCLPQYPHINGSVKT
# T2 sequence (P22607 23-806 V555M): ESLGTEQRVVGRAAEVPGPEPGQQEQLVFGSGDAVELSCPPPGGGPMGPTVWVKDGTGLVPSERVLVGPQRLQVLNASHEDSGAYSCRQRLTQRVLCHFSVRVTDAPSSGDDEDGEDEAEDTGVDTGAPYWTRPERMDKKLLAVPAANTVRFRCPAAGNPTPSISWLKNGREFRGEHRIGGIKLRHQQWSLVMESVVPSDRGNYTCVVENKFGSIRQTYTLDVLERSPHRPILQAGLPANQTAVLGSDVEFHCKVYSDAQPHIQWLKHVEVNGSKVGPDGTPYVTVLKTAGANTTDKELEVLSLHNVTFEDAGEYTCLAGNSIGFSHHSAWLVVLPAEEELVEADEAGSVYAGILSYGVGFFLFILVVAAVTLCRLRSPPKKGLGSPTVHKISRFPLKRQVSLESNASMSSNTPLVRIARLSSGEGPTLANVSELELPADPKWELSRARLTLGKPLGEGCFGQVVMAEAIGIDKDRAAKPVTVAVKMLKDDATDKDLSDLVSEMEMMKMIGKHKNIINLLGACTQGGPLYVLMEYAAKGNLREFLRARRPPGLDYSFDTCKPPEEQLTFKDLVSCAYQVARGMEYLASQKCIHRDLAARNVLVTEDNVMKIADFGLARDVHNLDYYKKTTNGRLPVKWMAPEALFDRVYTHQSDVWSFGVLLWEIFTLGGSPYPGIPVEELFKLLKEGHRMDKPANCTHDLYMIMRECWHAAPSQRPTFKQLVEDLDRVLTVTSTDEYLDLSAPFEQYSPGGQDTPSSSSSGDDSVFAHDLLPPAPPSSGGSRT
# T5 sequence (P11362 22-822): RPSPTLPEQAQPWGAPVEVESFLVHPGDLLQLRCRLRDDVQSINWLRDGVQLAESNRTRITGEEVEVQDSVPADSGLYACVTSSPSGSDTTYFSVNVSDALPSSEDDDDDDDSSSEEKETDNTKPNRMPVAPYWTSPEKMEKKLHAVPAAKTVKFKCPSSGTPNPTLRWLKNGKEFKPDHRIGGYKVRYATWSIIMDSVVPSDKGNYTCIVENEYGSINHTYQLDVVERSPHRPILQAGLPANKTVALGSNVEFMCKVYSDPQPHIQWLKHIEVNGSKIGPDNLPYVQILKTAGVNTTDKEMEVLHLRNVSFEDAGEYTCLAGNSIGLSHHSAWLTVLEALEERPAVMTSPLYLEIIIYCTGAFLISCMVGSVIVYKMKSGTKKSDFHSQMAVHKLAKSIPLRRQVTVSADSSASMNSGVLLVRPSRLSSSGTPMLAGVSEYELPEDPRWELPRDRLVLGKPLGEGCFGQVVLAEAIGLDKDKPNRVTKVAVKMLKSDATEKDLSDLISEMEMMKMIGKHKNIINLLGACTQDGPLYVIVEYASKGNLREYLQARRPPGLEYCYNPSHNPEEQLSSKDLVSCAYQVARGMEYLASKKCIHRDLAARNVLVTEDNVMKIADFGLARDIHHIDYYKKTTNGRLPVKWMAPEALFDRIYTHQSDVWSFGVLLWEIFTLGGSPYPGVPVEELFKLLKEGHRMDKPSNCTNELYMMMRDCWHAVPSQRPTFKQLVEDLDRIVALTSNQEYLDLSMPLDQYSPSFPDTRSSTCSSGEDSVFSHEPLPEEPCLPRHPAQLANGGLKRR
# T4 sequence (P22607 23-806): as the sequence (P22607 23-806 V555M) above, with M533V counted along it
SMILES,Kd ([1]; read-out: FGFR2 (Kd nM)) [nM],"Kd [2, 9] [nM]",Kd ([3]; read-out: FGFR4 (Kd nM)) [nM],Kd ([4]; read-out: FGFR3 (Kd nM)) [nM],Kd ([5]; read-out: FGFR1 (Kd nM)) [nM],IC50 ([6]; KATO III) [µM],"IC50 [7, 10] [µM]","IC50 [8, 11] [µM]",Kd ([1]; FGFR2 (Kd nM)) [nM],Kd [2] [nM],Kd [3] [nM],Kd [4] [nM],Kd [5] [nM],IC50 [6] [µM],IC50 ([7]; RT112/84 cell line (FGFR3-fusion)) [µM],IC50 ([8]; KG-1 cell line (FGFR1-fusion)) [µM]
"COc1cc2[nH]nc(-c3cnc(N4CC(C)(NCC5(O)CC5)C4)c(F)c3)c2cc1O[C@H](C)c1c(Cl)cncc1Cl [Example 119, (R)-1-(((1-(5-(5-(1-(3,5-dichloropyridin-4-yl)ethoxy)-6-methoxy-1H-indazol-3-yl)-3-fluoropyridin-2-yl)-3-methylazetidin-3-yl)amino)methyl)cyclo-propan-1-ol]",1 to 50,1 to 50,1 to 50,1 to 50,1 to 50,0.0001 to 0.05,0.0001 to 0.05,0.0001 to 0.05,–,–,–,–,–,–,–,–
"C[C@@H](Oc1ccc2[nH]nc(-c3ccc(N4CC(C)(CN(C)S(C)(=O)=O)C4)nc3)c2c1)c1c(Cl)cncc1Cl [Example 74, (R)-N-((1-(5-(5-(1-(3,5-dichloropyridin-4-yl)ethoxy)-1H-indazol-3-yl)pyridin-2-yl)-3-methylazetidin-3-yl)methyl)-N-methylmethanesulfona-mide]",1 to 50,1 to 50,1 to 50,1 to 50,1 to 50,0.0001 to 0.05,0.0001 to 0.05,0.05 to 0.2,–,–,–,–,–,–,–,–
"COP(=O)(CC1(C)CN(c2ncc(-c3n[nH]c4ccc(O[C@H](C)c5c(Cl)cncc5Cl)cc34)cc2F)C1)OC [Example 215, (R)-dimethyl ((1-(5-(5-(1-(3,5-dichloropyridin-4-yl)ethoxy)-1H-indazol-3-yl)-3-fluoropyridin-2-yl)-3-methylazetidin-3-yl)methyl)phos-phonate]",–,–,–,–,–,–,–,–,1 to 50,1 to 50,1 to 50,1 to 50,1 to 50,0.05 to 0.2,0.0001 to 0.05,0.05 to 0.2
"C[C@@H](Oc1ccc2[nH]nc(-c3cnc(N4CC(C)(NCC(C)(C)O)C4)c(F)c3)c2c1)c1c(Cl)cncc1Cl [Example 113, (R)-1-((1-(5-(5-(1-(3,5-dichloropyridin-4-yl)ethoxy)-1H-indazol-3-yl)-3-fluoropyridin-2-yl)-3-methylazetidin-3-yl)amino)-2-methylpropan-2-ol]",1 to 50,1 to 50,1 to 50,1 to 50,1 to 50,0.0001 to 0.05,0.0001 to 0.05,0.05 to 0.2,–,–,–,–,–,–,–,–
"COc1cc2[nH]nc(-c3cnc(N4CC(C)(NCC5CC5)C4)c(F)c3)c2cc1O[C@H](C)c1c(Cl)cncc1Cl [Example 126, (R)-N-(cyclopropylmethyl)-1-(5-(5-(1-(3,5-dichloropyridin-4-yl)ethoxy)-6-methoxy-1H-indazol-3-yl)-3-fluoropyridin-2-yl)-3-methylazetidin-3-amine]",1 to 50,1 to 50,1 to 50,1 to 50,1 to 50,0.0001 to 0.05,0.0001 to 0.05,0.0001 to 0.05,–,–,–,–,–,–,–,–
"C[C@@H](Oc1ccc2[nH]nc(-c3ccc(N4CC(C)(N5CCC5)C4)nc3)c2c1)c1c(Cl)cncc1Cl [Example 116, 3-[6-[3-(azetidin-1-yl)-3-methyl-azetidin-1-yl]-3-pyridyl]-5-[(1R)-1-(3,5-dichloro-4-pyridyl)ethoxy]-1H-indazole]",1 to 50,1 to 50,1 to 50,1 to 50,1 to 50,0.0001 to 0.05,0.0001 to 0.05,0.0001 to 0.05,–,–,–,–,–,–,–,–

# Continued, in another order:
Kd ([1]; read-out: FGFR2 (Kd nM)) [nM],"Kd [2, 9] [nM]",Kd ([3]; read-out: FGFR4 (Kd nM)) [nM],Kd ([4]; read-out: FGFR3 (Kd nM)) [nM],Kd ([5]; read-out: FGFR1 (Kd nM)) [nM],IC50 ([6]; KATO III) [µM],"IC50 [7, 10] [µM]","IC50 [8, 11] [µM]",SMILES,Kd ([1]; FGFR2 (Kd nM)) [nM],Kd [2] [nM],Kd [3] [nM],Kd [4] [nM],Kd [5] [nM],IC50 [6] [µM],IC50 ([7]; RT112/84 cell line (FGFR3-fusion)) [µM],IC50 ([8]; KG-1 cell line (FGFR1-fusion)) [µM]
1 to 50,1 to 50,1 to 50,1 to 50,1 to 50,0.05 to 0.2,0.0001 to 0.05,0.0001 to 0.05,"CCNC1(C)CN(c2ncc(-c3n[nH]c4cc(OC)c(O[C@H](C)c5c(Cl)cncc5Cl)cc34)cc2C#N)C1 [Example 341, (R)-5-(5-(1-(3,5-Dichloropyridin-4-yl)ethoxy)-6-methoxy-1H-indazol-3-yl)-2-(3-(ethylamino)-3-methylazetidin-1-yl)nicotinonitrile HCl]",–,–,–,–,–,–,–,–
1 to 50,1 to 50,1 to 50,1 to 50,1 to 50,0.05 to 0.2,0.0001 to 0.05,0.05 to 0.2,"C[C@H]1CN(C2(C)CN(c3ncc(-c4n[nH]c5ccc(O[C@H](C)c6c(Cl)cncc6Cl)cc45)cc3F)C2)CCO1 [Example 216, (S)-4-(1-(5-(5-((R)-1-(3,5-dichloropyridin-4-yl)ethoxy)-1H-indazol-3-yl)-3-fluoropyridin-2-yl)-3-methylazetidin-3-yl)-2-methylmorpholine]",–,–,–,–,–,–,–,–
1 to 50,1 to 50,1 to 50,1 to 50,1 to 50,0.05 to 0.2,0.0001 to 0.05,0.05 to 0.2,"C[C@@H](Oc1cc2c(-c3cnc(N4CC(C)(NCC5CC5)C4)c(F)c3)n[nH]c2cc1F)c1c(Cl)cncc1Cl [Example 132, N-(cyclopropylmethyl)-1-[5-[5-[(1R)-1-(3,5-dichloro-4-pyridyl)ethoxy]-6-fluoro-1H-indazol-3-yl]-3-fluoro-2-pyridyl]-3-methyl-azetidin-3-amine]",–,–,–,–,–,–,–,–
1 to 50,1 to 50,1 to 50,1 to 50,1 to 50,0.0001 to 0.05,0.0001 to 0.05,0.05 to 0.2,"C[C@H]1CN(C2(C)CN(c3ccc(-c4n[nH]c5ccc(O[C@H](C)c6c(Cl)cncc6Cl)cc45)cn3)C2)CCO1 [Example 212, (S)-4-(1-(5-(5-((R)-1-(3,5-dichloropyridin-4-yl)ethoxy)-1H-indazol-3-yl)pyridin-2-yl)-3-methylazetidin-3-yl)-2-methylmorpholine]",–,–,–,–,–,–,–,–
1 to 50,1 to 50,1 to 50,1 to 50,1 to 50,0.0001 to 0.05,0.0001 to 0.05,0.05 to 0.2,"C=CCNC1(C)CN(c2ccc(-c3n[nH]c4ccc(O[C@H](C)c5c(Cl)cncc5Cl)cc34)cn2)C1 [Example 232, (R)-N-ally1-1-(5-(5-(1-(3,5-dichloropyridin-4-yl)ethoxy)-1H-indazol-3-yl)pyridin-2-yl)-3-methylazetidin-3-amine]",–,–,–,–,–,–,–,–
1 to 50,1 to 50,1 to 50,1 to 50,1 to 50,0.0001 to 0.05,0.0001 to 0.05,0.0001 to 0.05,"C[C@@H](Oc1cc2c(-c3cnc(N4CC(C)(N5CCCC5)C4)c(F)c3)n[nH]c2cc1F)c1c(Cl)cncc1Cl [Example 128, (R)-5-(1-(3,5-dichloropyridin-4-yl)ethoxy)-6-fluoro-3-(5-fluoro-6-(3-methyl-3-(pyrrolidin-1-yl)azetidin-1-yl)pyridin-3-yl)-1H-indazole]",–,–,–,–,–,–,–,–
1 to 50,1 to 50,1 to 50,1 to 50,1 to 50,0.0001 to 0.05,0.0001 to 0.05,0.0001 to 0.05,"COc1cc2[nH]nc(-c3cnc(N4CC(C)(NC[C@H](C)O)C4)c(F)c3)c2cc1O[C@H](C)c1c(Cl)cncc1Cl [Example 160, (S)-1-((1-(5-(5-((R)-1-(3,5-dichloropyridin-4-yl)ethoxy)-6-methoxy-1H-indazol-3-yl)-3-fluoropyridin-2-yl)-3-methylazetidin-3-yl)amino)propan-2-ol]",–,–,–,–,–,–,–,–
1 to 50,1 to 50,1 to 50,1 to 50,1 to 50,0.0001 to 0.05,0.0001 to 0.05,0.0001 to 0.05,"CNC1(C)CN(c2ncc(-c3n[nH]c4ccc(O[C@H](C)c5c(Cl)cncc5Cl)cc34)cc2F)C1 [Example 171, (R)-1-(5-(5-(1-(3,5-dichloropyridin-4-yl)ethoxy)-1H-indazol-3-yl)-3-fluoropyridin-2-yl)-N,3-dimethylazetidin-3-amine]",–,–,–,–,–,–,–,–
